Patent US20170304281A1, “METHODS OF USING POTASSIUM CHANNEL INHIBITORS (BLOCKERS) FOR FLUID RESUSCITATION” (Loyola University of Chicago, priority 2016, published 2017)
Read-outs that look alike come from different tables or passages of the source.

Key:
[1] = tested on: rats hemorrhaged to induce hemorrhagic shock; assay: Fluid resuscitation after hemorrhagic shock, intravenous bolus injection at end of shock period; type: in vivo, rat; details: for fluid requirements to resuscitate to a MAP of 70 mmHg: mean±SD
Protocol: Further phases of the investigation entailed the use of anesthetized male Sprague-Dawley rats that were hemorrhaged to a mean arterial blood pressure (MAP) of 25 mmHg for thirty minutes to induce hemorrhagic shock, followed by fluid resuscitation with normal saline to a MAP of 70 mmHg until t=75 minutes. Hemodynamics and fluid requirements were continuously monitored.
FIG. 3 contains three plots evidencing the ability of linopirdine to dose-dependently reduce fluid requirements to maintain hemodynamics during resuscitation from induced hemorrhagic shock. At the end of the hemorrhagic shock period (t=30 min), normal saline alone (“vehicle”; n=4), 1 mg/kg (n=5), 3 mg/kg (n=3), or 6 mg/kg (n=3) linopirdine in 0.5 mL normal saline were bolus injected intravenously. Plot “A” represents the mean arterial blood pressure (MAP, mmHg), plot “B” represents the hemorrhage volume in percent of total blood volume, and plot “C” represents the resuscitation fluid requirements to maintain blood pressure at 70 mmHg. Fluid requirements to resuscitate to a MAP of 70 mmHg were: 65±34 mL/kg with normal saline alone and 57±13 mL/kg, 22±8 mL/kg (p<0.05 vs. normal saline alone) and 22±11 mL/kg (p<0.05 vs. normal saline alone) with 1 mg/kg, 3 mg/kg, and 6 mg/kg linopirdine, respectively. The effect of linopirdine to reduce fluid requirements to maintain hemodynamics during resuscitation from hemorrhagic shock appeared to be saturated at a bolus dose of about 3 mg/kg linopirdine. As compared with normal saline-treated animals, a bolus injection of linopirdine (3 mg/kg and 6 mg/kg) reduced fluid resuscitation requirements by 70%. Data are mean±SD. *:p<0.05 vs. normal saline alone. Two-way ANOVA/Bonferroni post-hoc multiple comparison test.
At the end of the hemorrhagic shock period (t=30 min), normal saline alone (“vehicle”; n=3) or 1 mg/kg (n=3) of XE991 in 0.5 mL normal saline were injected intravenously. Plot “A” represents the mean arterial blood pressure (MAP, mmHg), plot “B” represents the hemorrhage volume in percent of total blood volume, and plot “C” represents the resuscitation fluid requirements to maintain blood pressure at 70 mmHg. […] Data are mean±SD. *:p<0.05 vs. normal saline alone. Two-way ANOVA/Bonferroni post-hoc multiple comparison test.

[2] = tested on: Kv7 channel; details: XE991 vs linopirdine; cited from earlier work
[3] = intravenous injection of 2.5 mg/kg in rats; cited from earlier work
[4] = oral administration in humans; cited from earlier work
[5] = phase 1 and phase 2 clinical trials as cognition-enhancing drug in Alzheimer's disease; cited from earlier work
[6] = tested on: rats hemorrhaged to induce hemorrhagic shock; assay: Fluid resuscitation after hemorrhagic shock, resuscitation fluid (normal saline) supplemented with drug; type: in vivo, rat; details: for fluid requirements to resuscitate to a MAP of 70 mmHg: mean±SD
Protocol: Further phases of the investigation entailed the use of anesthetized male Sprague-Dawley rats that were hemorrhaged to a mean arterial blood pressure (MAP) of 25 mmHg for thirty minutes to induce hemorrhagic shock, followed by fluid resuscitation with normal saline to a MAP of 70 mmHg until t=75 minutes. Hemodynamics and fluid requirements were continuously monitored. […] At the end of the hemorrhagic shock period (t=30 min), animals were resuscitated with normal saline alone (“vehicle”; n=4) or normal saline supplemented with 1.25 (n=4), 6.25 (n=3), 12.5 (n=4), or 200 (n=6) […] of linopirdine. Plot “A” represents the mean arterial blood pressure (MAP, mmHg), plot “B” represents the hemorrhage volume in percent of total blood volume, and plot “C” represents the resuscitation fluid requirements to maintain blood pressure at 70 mmHg. Fluid requirements to resuscitate to a MAP of 70 mmHg were: 73±12 mL/kg with NS, 72±24 mL/kg with NS supplemented with 1.25 μg/mL linopirdine and 61±20 mL/kg, 36±9 mL/kg (p<0.05 vs. NS alone) and 31±9 mL/kg (p<0.05 vs. NS alone) with NS supplemented with 6.25 μg/mL, 12.5 μg/mL and 200 μg/mL linopirdine, respectively. […] Data are mean±SD. *:p<0.05 vs. normal saline alone. Two-way ANOVA/Bonferroni post-hoc multiple comparison test.

[7] = tested on: normal rats; assay: Effect of intravenous bolus doses on blood pressure in normal anesthetized rats (sham, no hemorrhage); type: in vivo, rat; details: for peak mean arterial blood pressure (MAP): normal rats n=3, baseline MAP 92±2.5 mmHg, mean±SD
Protocol: Initial phases of the investigation entailed the administration of linopirdine to anesthetized male Sprague-Dawley rats to determine its effect on blood pressure. Hemodynamics and fluid requirements were continuously monitored.
FIG. 1 contains a plot representing the effect of linopirdine on blood pressure in normal rats (sham—no hemorrhage, n=3) that received five increasing intravenous (i.v.) bolus doses of linopirdine (0.1-6 mg per kg of body weight) in 0.5 mL normal saline (NS) at fifteen minute intervals. […] Data are mean±SD.
FIG. 2 contains a plot representing the effect of the Kv7 channel activator retigabine on blood pressure when administered to normal rats (sham—no hemorrhage, n=3) by intravenous injection in increasing dosages of 0.1 mg/kg, 0.5 mg/kg, 1 mg/kg, 3 mg/kg, 6 mg/kg, and 12 mg/kg in 0.5 mL normal saline. […] Data are mean±SD.

[8] = rat, in vivo
Protocol: After intravenous injection of 2.5 mg/kg linopirdine, a half-life of 0.6 hours has been determined in rats. Thus, the short half-life would indicate that linopirdine is a drug that is easily controllable if adverse effects were to occur.

In the case of `O=C1c2ccccc2C(Cc2ccncc2)(Cc2ccncc2)c2ccccc21` [XE991], the “effect on resuscitation fluid requirements relative to linopirdine” value ([1]; XE991 1 mg/kg i.v. bolus, n=3, compared with linopirdine 3 mg/kg and 6 mg/kg) is given as “comparable effect” and the “potency for channel blockade relative to linopirdine” value [2] is given as “five to ten-fold higher potency”.
For `O=C1N(c2ccccc2)c2ccccc2C1(Cc1ccncc1)Cc1ccncc1` [linopirdine], the half-life [3] is given as 36 min, the half-life [4] is given as 24 to 192 min and the “adverse effects in clinical trials” value [5] is given as “no relevant adverse effects”. For the same molecule, the “fluid requirements to resuscitate to a MAP of 70 mmHg” value (from here on “fluid requirements to resuscitate”) ([6]; NS supplemented with 1.25 μg/mL linopirdine, n=4, NS alone 73±12 mL/kg) was 72 ± 24 mL/kg, the “fluid requirements to resuscitate” value ([6]; NS supplemented with 6.25 μg/mL linopirdine, n=3, NS alone 73±12 mL/kg) was 61 ± 20 mL/kg and the “fluid requirements to resuscitate” value ([6]; NS supplemented with 12.5 μg/mL linopirdine, n=4, p<0.05 vs. NS alone (73±12 mL/kg), cumulative dose 0.446 mg/kg) was 36 ± 9 mL/kg. The “fluid requirements to resuscitate” value ([6]; NS supplemented with 200 μg/mL linopirdine, n=6, p<0.05 vs. NS alone (73±12 mL/kg)) was 31 ± 9 mL/kg, the “concentration in normal saline at which the effect was saturated” value ([6]; supplemented resuscitation fluid, hemorrhagic shock rats) was 12.5 µg/mL and the “transient increase of mean arterial blood pressure” value ([7]; 6 mg/kg i.v. injection, normal rats) was “approximately 10%”. The “reversal of retigabine-induced hypotension” value ([7]; 6 mg/kg linopirdine injected after last (12 mg/kg) dosage of retigabine, normal rats) was “able to be reversed”, the “time for MAP to return to baseline after bolus” value ([7]; 0.1-6 mg/kg i.v. bolus doses, normal rats) was “ten to fifteen” and the “effect on systemic blood pressures” value ([7]; high i.v. bolus dose 6 mg/kg and total i.v. dose 10.6 mg/kg within one hour, normotensive rats) was “only minimal and short-lived increases”. The “peak mean arterial blood pressure (MAP)” value ([7]; linopirdine 0.1 mg/kg i.v. bolus) was 92±2 mmHg, the “peak mean arterial blood pressure (MAP)” value ([7]; linopirdine 0.5 mg/kg i.v. bolus) was 93±2 mmHg and the “peak mean arterial blood pressure (MAP)” value ([7]; linopirdine 1 mg/kg i.v. bolus) was 95±4 mmHg. For the same molecule, the “peak mean arterial blood pressure (MAP)” value ([7]; linopirdine 3 mg/kg i.v. bolus) was 100±2 mmHg, the “peak mean arterial blood pressure (MAP)” value ([7]; linopirdine 6 mg/kg i.v. bolus) was 105±0.6 mmHg and the “fluid requirements to resuscitate” value ([1]; 1 mg/kg i.v. bolus at t=30 min, n=5, normal saline alone 65±34 mL/kg) was 57 ± 13 mL/kg. The “fluid requirements to resuscitate” value ([1]; 3 mg/kg i.v. bolus at t=30 min, n=3, p<0.05 vs. normal saline alone (65±34 mL/kg)) was 22 ± 8 mL/kg, the “fluid requirements to resuscitate” value ([1]; 6 mg/kg i.v. bolus at t=30 min, n=3, p<0.05 vs. normal saline alone (65±34 mL/kg)) was 22 ± 11 mL/kg and the “reduction of fluid resuscitation requirements compared with normal saline-treated animals” value ([1]; bolus injection 3 mg/kg and 6 mg/kg) was 70%. For the same molecule, the “bolus dose at which the fluid-sparing effect appeared saturated” value ([1]; i.v. bolus, hemorrhagic shock rats) was “about 3 mg/kg”, the “reduction of resuscitation fluid requirements at saturating dose” value ([1]; single dose of three milligrams per kilogram at beginning of fluid resuscitation) was 65% and the “toxicity associated with treatment” value [8] was “No toxicity”.
